Literature values, collected in patent US20240050452A1, “USE OF C[…] THE TREATMENT OF SEIZURES ASSOCIATED WITH EPILEPSY SYNDROMES IN PATIENTS TAKING BRIVARACETAM” (GW Research Limited, priority 2020, published 2024).

System: seizure frequencies
Conditions: increasing CBD dose combined with a constant BRV dose; seizure types not disclosed

C=C(C)[C@@H]1CCC(C)=C[C@H]1c1c(O)cc(CCCCC)cc1O [CBD, cannabidiol]
effect on seizure frequencies: reductions in seizure frequencies
